Measured values from patent publication US20240368133A1, “Compounds for the Treatment of Pain, in Particular, Neuropathic Pain, and/or Other Diseases or Disorders that are Associated with AT2R and/or AT2R Mediated Signaling” (Confo Therapeutics N.V., priority 2021, published 2024).

Columns and labels:
Type in all cases: in vitro ADME
[1] = Metabolic stability in hepatocytes, mouse; conditions: hepatocytes (cryopreserved), read-out: Mouse Clint (μL/min/10^6 cells)
Procedure: (§1) The aim of this assay is to determine the metabolic stability of the compound in hepatocytes (cryopreserved) of different species (mouse CD1, rat Sprague Dawley, dog Beagle). Low hepatocyte stability may result in the formation of unwanted metabolites, high clearance, and therefore is not desirable. The decrease in parent was assessed by measuring the percentage remaining by LC-MS/MS analysis. The batches of hepatocytes were tested for quality control using Testosterone, Umbelliferone and Caffeine as reference compounds.
A 10 mM stock solution of test compound in DMSO was first diluted in DMSO to 3 mM, and then in modified Krebs-Henseleit buffer (Sigma, K3753) to 5 μM. This compound dilution was added to a suspension of pooled cryopreserved hepatocytes (BioIVT) at 37° C. under gentle shaking. Final reaction conditions were: 1 μM of test compound, <0.1% DMSO, 0.5 million viable hepatocytes/mL, and 75 μL incubation volume.
After 0, 10, 20, 45, 90, 120 and 180 min of incubation, the reaction was terminated with 3 volumes of MeCN:MeOH (2:1) containing diclofenac as analytical internal standard. Samples were mixed, centrifuged and the supernatant analyzed by LC-MS/MS (systems API4000). The instrument responses (ratios of test compound and internal standard peak areas) were referenced to the zero time point samples (considered as 100%) in order to determine the percentage of compound remaining. Plots of percentage compound remaining were used to determine the intrinsic clearance in the hepatocyte incubations.
(§2) Testosterone (1 μM) and Umbelliferone (1 μM) and Caffeine (1 μM) were used as reference compounds, being unstable and stable compounds respectively. If the hepatocyte stability values for these controls are not in the range determined by the historical data, the assay is not validated.

[2] = Metabolic stability in hepatocytes, dog; conditions: Beagle, pooled cryopreserved hepatocytes, read-out: Dog Clint (μL/min/10^6 cells)
Procedure: as §1
A 10 mM stock solution of test compound in DMSO was first diluted in DMSO to 3 mM, and then in modified Krebs-Henseleit buffer (Sigma, K3753) to 5 μM. This compound dilution was added to a suspension of pooled cryopreserved hepatocytes (BioIVT) at 37° C. under gentle shaking. […]
After 0, 10, 20, 45, 90, 120 and 180 min of incubation, the reaction was terminated with 3 volumes of MeCN:MeOH (2:1) containing diclofenac as analytical internal standard. Samples were mixed, centrifuged and the supernatant analyzed by LC-MS/MS (systems API4000). […]
as §2

[3] = Caco-2 permeability assay; conditions: human, pH 7.4; Caco-2, BA
[4] = Liver microsomal stability, dog; conditions: male, Beagle, pH 7.4, liver microsomes
Procedure: Mouse hepatic microsomes were isolated from pooled, perfused livers of male CD1 mice. Rat hepatic microsomes were isolated from pooled, perfused livers of male Sprague Dawley rats. Dog hepatic microsomes were isolated from pooled, perfused livers of male Beagle dogs. The batches of microsomes were tested for quality control using Testosterone, Propranolol and Caffeine as reference compounds.
A 10 mM stock solution of compound in DMSO is diluted three-fold in DMSO. This pre-diluted compound solution is then further diluted to 2 μM in a 50 mM phosphate buffer (PBS, pH 7.4) and pre-warmed at 37° C. This compound dilution is mixed F2 with microsomal/cofactor mix at 37° C. under shaking at 300 rpm. Final reaction conditions are: 100 μL incubation volume, 1 μM of test compound (in duplicate), <0.1% DMSO, 0.5 mg/mL microsomes, 0.6 U/mL Glucose-6-phosphate-dehydrogenase (G6PDH, Roche, 10127671001), 3.3 mM MgCl2 (Sigma, M2670), 3.3 mM glucose-6-phosphate (Sigma, G-7879) and 1.3 mM NADP+ (Sigma, N-0505).
After 60 min of incubation at 300 rpm and 37° C., the reaction was stopped with 3 volumes of STOP solution (acetonitrile/MeOH 2/1 with diclofenac as internal standard). For the time point zero, 3 volumes of STOP solution were added to the compound dilution before the microsome mix was added. Six time points over 60 minutes have been analyzed. The samples of all time points were centrifuged, filtered and the supernatant analyzed by LCMS/MS (systems API4000).
The instrument responses (peak areas/IS peak area) were referenced to the zero time-point samples (considered as 100%) in order to determine the percentage of compound remaining.
Testosterone (1 μM) and Propranolol and Caffeine (1 μM) were used as reference compounds, being unstable and stable compounds respectively. If the microsomal stability values for these controls are not in the range determined by the historical data, the assay is not validated. The solubility of the compound in the final test concentration in 50 mM buffer pH 7.4 is checked by microscope to indicate whether precipitation is observed or not. If a precipitate is observed, no data of microsomal stability is generated.

[5] = Metabolic stability in hepatocytes, human; conditions: pooled cryopreserved hepatocytes, read-out: Human Clint (μL/min/10^6 cells)

Row | SMILES | hepatocyte CLint [1] | hepatocyte CLint at 1 µM [2] | microsomal CLint at 1 µM [4] | hepatocyte CLint at 1 µM [5] | Papp B→A at 90 min, 10 µM [3]
1 | CC(C)Cc1cc(F)c(-c2nn[nH]n2)c(N2CCN(Cc3cccnn3)C(C)C2)c1 (stereo not shown) [Compound A-173, 3-[[4-[3-fluoro-5-isobutyl-2-(2H-tetrazol-5-yl)phenyl]-2-methyl-piperazin-1-yl]methyl]pyridazine] | 4 µL/min/1e6 cells |  |  |  | 
2 | CC(C)Cc1cc(F)c(-c2nn[nH]n2)c(N2CCN(Cc3cccnn3)[C@@H](C)C2)c1 [Compound A-174, 3-[[(2S)-4-[3-fluoro-5-isobutyl-2-(2H-tetrazol-5-yl)phenyl]-2-methyl-piperazin-1-yl]methyl]pyridazine] | < 5.4 µL/min/1e6 cells | < 5.1 µL/min/1e6 cells | < 11.7 µL/min/mg | < 2.9 µL/min/1e6 cells | 2.4 ×10⁻⁶ cm/s
3 | CCC1CN(c2cc(CC(C)C)cc(F)c2-c2nn[nH]n2)CCN1Cc1cccnn1 (stereo not shown) [Compound A-178, 3-[[2-ethyl-4-[3-fluoro-5-isobutyl-2-(2H-tetrazol-5-yl)phenyl]piperazin-1-yl]methyl]pyridazine] | 0.8 µL/min/1e6 cells |  |  |  | 8.6 ×10⁻⁶ cm/s

Now from value to molecule, other results behind:

Row | hepatocyte CLint [1] | hepatocyte CLint at 1 µM [2] | microsomal CLint at 1 µM [4] | hepatocyte CLint at 1 µM [5] | SMILES | Papp B→A at 90 min, 10 µM [3]
4 | 1 µL/min/1e6 cells |  |  |  | CCC1CN(Cc2cccnn2)CCN1c1cc(CC(C)C)cc(F)c1-c1nn[nH]n1 (stereo not shown) [Compound A-181, 3-[[3-ethyl-4-[3-fluoro-5-isobutyl-2-(2H-tetrazol-5-yl)phenyl]piperazin-1-yl]methyl]pyridazine] | 
5 | 2 µL/min/1e6 cells |  |  |  | CC(C)Cc1cc(F)c(-c2nn[nH]n2)c(N2CC(C)N(Cc3cccnn3)CC2C)c1 (stereo not shown) [Compound A-183, 3-[[4-[3-fluoro-5-isobutyl-2-(2H-tetrazol-5-yl)phen-yl]-2,5-dimethyl-piperazin-1-yl]-methyl]pyridazine] | 
6 |  | < 5.1 µL/min/1e6 cells | < 11.5 µL/min/mg | 5.8 µL/min/1e6 cells | CC(C)Cc1cc(F)c(-c2nn[nH]n2)c(N2CCN(Cc3ccccn3)[C@@H](C)C2)c1 [Compound A-217, (2S)-4-[3-fluoro-5-isobutyl-2-(2H-tetrazol-5-yl)phenyl]-2-methyl-1-(2-pyridylmethyl)piperazine] | 
